# From EPA's ToxRefDB 2
# Columns and labels:
# rat [1] = conditions: Subchronic oral toxicity in rodents, fischer, Water, dose end: 13 week, group: systemic
# rat [2] = conditions: Combined chronic toxicity/carcinogenicity, fischer, Oral, Feed, dose end: 24 month, group: systemic
# dog [3] = conditions: Chronic toxicity; beagle; Oral; Feed; dose end: 12 month; group: systemic; systemic / pathology microscopic / kidney / adenoma
# mouse [4] = conditions: Carcinogenicity, cd1, Oral, [Not Specified], dose end: 24 month, group: systemic
# rat [5] = conditions: Prenatal developmental toxicity study, sprague dawley, Oral, Gavage/Intubation, dose end: 15 GD
# rat [6] = conditions: Prenatal developmental toxicity study, sprague-dawley, Oral, Gavage/Intubation, dose end: 15 GD
# rat [7] = conditions: Combined chronic toxicity/carcinogenicity, other, Oral, Feed, dose end: 24 month, group: systemic
# rabbit [8] = conditions: Prenatal developmental toxicity study, himalayan, Oral, Gavage/Intubation, dose end: 19 GD
# dog [9] = conditions: Chronic toxicity, beagle, Oral, Feed, dose end: 52 week, group: systemic
# rat [10] = conditions: Multigenerational reproductive toxicity study, other, Oral, Feed, dose end: 2 generation
# rat [11] = conditions: Subchronic oral toxicity in rodents, sprague dawley, Feed, dose end: 3 month, group: systemic
# mouse [12] = conditions: Carcinogenicity, other, Oral, Feed, dose end: 18 month, group: systemic
# dog [13] = conditions: Subchronic oral toxicity in nonrodent, beagle, Feed, dose end: 90 day, group: systemic, systemic / clinical chemistry / albumin / albumin + systemic / clinical chemistry / albumin-globulin ratio / albumin-globulin ratio + …
# dog [14] = conditions: Sub-acute repeat dose toxicity; beagle; Oral; Gavage/Intubation; dose end: 4 week; group: systemic; systemic / in life observation / clinical signs / abnormal feces
# rat [15] = conditions: Sub-acute repeat dose toxicity, sprague dawley, Oral, Gavage/Intubation, dose end: 4 week, group: systemic
# rat [16] = conditions: Prenatal developmental toxicity study, sprague dawley, Oral, Gavage/Intubation, dose end: 17 GD
# rabbit [17] = conditions: Prenatal developmental toxicity study, new zealand white, Oral, Gavage/Intubation, dose end: 19 GD
# rat [18] = conditions: Fertility (Segment I), sprague dawley, Oral, Gavage/Intubation, dose end: 7 GD
# rat [19] = conditions: Prenatal developmental toxicity study, sprague dawley, Oral, Gavage/Intubation, dose end: 17 GD; remark: listed apart in the source
# rat [20] = conditions: Developmental neurotoxicity study, long evans, Oral, Gavage/Intubation, dose end: 110 PND, group: cannot be grouped
# [21] = systemic / urinalysis / protein / protein + systemic / urinalysis / bilirubin / total bilirubin
# [22] = systemic / urinalysis / protein / protein + systemic / urinalysis / bilirubin / total bilirubin + systemic / urinalysis / specific gravity/…
# [23] = systemic / pathology microscopic / adrenal gland / pheochromocytoma benign + systemic / pathology microscopic / adrenal gland / …
# [24] = systemic / pathology gross / lung / nodule(s)
# [25] = systemic / pathology microscopic / liver / hemangiosarcoma + systemic / pathology microscopic / lung / adenoma + systemic / pathology …
# [26] = group: developmental, developmental / developmental malformation / bone / absent
# [27] = group: maternal, systemic / in life observation / clinical signs / defecation (diarrhea) + systemic / in life observation / clinical signs / soft stools
# [28] = group: developmental, developmental / developmental malformation / bone / unossified + developmental / developmental malformation / bone / [other]
# [29] = group: developmental, developmental / developmental malformation / bone / unossified + developmental / developmental malformation / bone / [other] + developmental…
# [30] = group: maternal, systemic / in life observation / body weight / body weight gain + systemic / in life observation / food consumption / food consumption
# [31] = group: maternal, systemic / in life observation / food consumption / food consumption
# [32] = systemic / pathology microscopic / kidney / atrophy
# [33] = systemic / pathology microscopic / kidney / atrophy + systemic / in life observation / body weight / body weight + systemic / in life …
# [34] = group: developmental, developmental / developmental malformation / heart / misshapen
# [35] = group: maternal, systemic / in life observation / clinical signs / hemorrhagic perineal discharge + systemic / in life observation / mortality / mortality
# [36] = group: maternal, systemic / in life observation / clinical signs / hemorrhagic perineal discharge + systemic / in life observation / mortality / mortality + …
# [37] = systemic / pathology gross / lung / foci + systemic / in life observation / body weight / body weight gain + systemic / pathology …
# [38] = group: offspring, systemic / in life observation / body weight / offspring (pup) weight + systemic / organ weight / spleen / absolute + systemic / organ …
# [39] = group: parental, systemic / in life observation / body weight / body weight + systemic / in life observation / body weight / body weight gain + systemic / in…
# [40] = systemic / in life observation / body weight / body weight + systemic / in life observation / body weight / body weight gain
# [41] = systemic / in life observation / body weight / body weight + systemic / in life observation / body weight / body weight gain + systemic / …
# [42] = systemic / in life observation / body weight / body weight + systemic / in life observation / body weight / body weight gain + systemic / in…
# [43] = systemic / clinical chemistry / cholesterol / cholesterol + systemic / pathology microscopic / kidney / karyomegaly + systemic / pathology …
# [44] = systemic / pathology microscopic / kidney / karyomegaly + systemic / pathology microscopic / kidney / necrosis + systemic / pathology …
# [45] = group: developmental, developmental / developmental malformation / bone / branched + developmental / developmental malformation / bone / full supernumerary + …
# [46] = group: developmental, developmental / developmental malformation / bone / short + developmental / developmental malformation / bone / unossified + developmental…
# [47] = group: maternal, systemic / in life observation / body weight / body weight + systemic / in life observation / body weight / body weight gain + systemic / in…
# [48] = group: developmental, systemic / in life observation / body weight / fetal weight
# [49] = group: maternal, systemic / in life observation / body weight / body weight gain + systemic / in life observation / clinical signs / defecation + systemic / …
# [50] = group: maternal, reproductive / reproductive performance / estrous cycle / corpora lutea + reproductive / reproductive performance / implantations / …
# [51] = group: parental, systemic / in life observation / body weight / body weight gain + systemic / in life observation / food consumption / food consumption
# [52] = group: developmental, developmental / developmental malformation / trunk / thoracogastroschisis + systemic / in life observation / body weight / fetal weight
# [53] = group: maternal, reproductive / reproductive performance / postimplantation loss / postimplantation loss + systemic / in life observation / body weight / …
# [54] = systemic / in life observation / body weight / body weight gain + systemic / in life observation / clinical signs / vaginal discharge + …
smiles,measurement,setting,value
CN(C)NC(=O)CCC(=O)O [Daminozide],LEL,rat [1]; [21],2.01 mg/kg/day
same,LOAEL,rat [1]; [21],2.01 mg/kg/day
same,NEL,rat [1]; [22],0.8 mg/kg/day
same,NOAEL,rat [1]; [22],0.8 mg/kg/day
same,LOAEL,rat [2]; [23],> 500 mg/kg/day
same,NEL,rat [2]; [23],25 mg/kg/day
same,NOAEL,rat [2]; [23],≥ 500 mg/kg/day
same,LEL,rat [2]; systemic / pathology microscopic / adrenal gland / pheochromocytoma malignant,250 mg/kg/day
same,LEL,dog [3],188 mg/kg/day
same,LOAEL,dog [3],> 188 mg/kg/day
same,NEL,dog [3],75 mg/kg/day
same,NOAEL,dog [3],≥ 188 mg/kg/day
same,LEL,mouse [4]; [24],42 mg/kg/day
same,NEL,mouse [4]; [24],< 42 mg/kg/day
same,LOAEL,mouse [4]; [25],> 1410 mg/kg/day
same,NOAEL,mouse [4]; [25],≥ 1410 mg/kg/day
same,LEL,rat [5]; [26],1800 mg/kg/day
same,LOAEL,rat [5]; [26],1800 mg/kg/day
same,NEL,rat [5]; [26],390 mg/kg/day
same,NOAEL,rat [5]; [26],390 mg/kg/day
same,LEL,rat [5]; [27],1800 mg/kg/day
same,LOAEL,rat [5]; [27],1800 mg/kg/day
same,NEL,rat [5]; [27],390 mg/kg/day
same,NOAEL,rat [5]; [27],390 mg/kg/day
COc1cc(OC)nc(NC(=O)[N-]S(=O)(=O)c2ncccc2OCC(F)(F)F)n1.[Na+] [Trifloxysulfuron-sodium],LEL,rat [6]; [28],30 mg/kg/day
same,NEL,rat [6]; [28],< 30 mg/kg/day
same,LOAEL,rat [6]; [29],1000 mg/kg/day
same,NOAEL,rat [6]; [29],300 mg/kg/day
same,LOAEL,rat [6]; [30],1000 mg/kg/day
same,NEL,rat [6]; [30],30 mg/kg/day
same,NOAEL,rat [6]; [30],300 mg/kg/day
same,LEL,rat [6]; [31],300 mg/kg/day
same,LEL,rat [7]; [32],99.3 mg/kg/day
same,LOAEL,rat [7]; [32],99.3 mg/kg/day
same,NEL,rat [7]; [33],23.7 mg/kg/day
same,NOAEL,rat [7]; [33],23.7 mg/kg/day
same,LEL,rabbit [8]; [34],100 mg/kg/day
same,LOAEL,rabbit [8]; [34],100 mg/kg/day
same,NEL,rabbit [8]; [34],50 mg/kg/day
same,NOAEL,rabbit [8]; [34],50 mg/kg/day
same,LEL,rabbit [8]; [35],250 mg/kg/day
same,LOAEL,rabbit [8]; [35],250 mg/kg/day
same,NEL,rabbit [8]; [36],100 mg/kg/day
same,NOAEL,rabbit [8]; [36],100 mg/kg/day
same,LEL,dog [9]; systemic / pathology gross / lung / foci,15 mg/kg/day
same,NEL,dog [9]; [37],6.51 mg/kg/day
same,NOAEL,dog [9]; [37],51.1 mg/kg/day
same,LOAEL,dog [9]; systemic / pathology gross / lung / foci + systemic / pathology microscopic / lung / thickened,123 mg/kg/day
same,LEL,rat [10]; [38],631 mg/kg/day
same,LOAEL,rat [10]; [38],631 mg/kg/day
same,NEL,rat [10]; [38],78.8 mg/kg/day
same,NOAEL,rat [10]; [38],78.8 mg/kg/day
same,LEL,rat [10]; [39],631 mg/kg/day
same,LOAEL,rat [10]; [39],631 mg/kg/day
same,NEL,rat [10]; [39],78.8 mg/kg/day
same,NOAEL,rat [10]; [39],78.8 mg/kg/day
same,LEL,"rat [11]; systemic / clinical chemistry / cytochrome p450, nos / cytochrome p450, nos",239 mg/kg/day
same,LOAEL,rat [11]; [40],1050 mg/kg/day
same,NEL,rat [11]; [41],65.7 mg/kg/day
same,NOAEL,rat [11]; [41],507 mg/kg/day
same,LEL,mouse [12]; [40],24.1 mg/kg/day
same,LOAEL,mouse [12]; [40],24.1 mg/kg/day
same,NEL,mouse [12]; [42],5.76 mg/kg/day
same,NOAEL,mouse [12]; [42],5.76 mg/kg/day
same,LEL,dog [13],164 mg/kg/day
same,LOAEL,dog [13],164 mg/kg/day
same,NEL,dog [13],19.8 mg/kg/day
same,NOAEL,dog [13],19.8 mg/kg/day
Cc1nc(-c2ccccn2)ncc1C(=O)Nn1cc(C)c2cc(F)ccc21,LEL,dog [14],100 mg/kg/day
same,LOAEL,dog [14],100 mg/kg/day
same,NEL,dog [14],30 mg/kg/day
same,NOAEL,dog [14],30 mg/kg/day
same,LOAEL,rat [15]; [43],110 mg/kg/day
same,NOAEL,rat [15]; [43],30 mg/kg/day
same,LEL,rat [15]; [44],10 mg/kg/day
same,NEL,rat [15]; [44],< 10 mg/kg/day
same,LOAEL,rat [16]; [45],> 110 mg/kg/day
same,NOAEL,rat [16]; [45],≥ 110 mg/kg/day
same,LEL,rat [16]; [46],10 mg/kg/day
same,NEL,rat [16]; [46],< 10 mg/kg/day
same,LOAEL,rat [16]; [47],110 mg/kg/day
same,NEL,rat [16]; [47],10 mg/kg/day
same,NOAEL,rat [16]; [47],30 mg/kg/day
same,LEL,rat [16]; [31],30 mg/kg/day
same,LEL,rabbit [17]; [48],500 mg/kg/day
same,LOAEL,rabbit [17]; [48],> 2000 mg/kg/day
same,NEL,rabbit [17]; [48],< 500 mg/kg/day
same,NOAEL,rabbit [17]; [48],≥ 2000 mg/kg/day
same,LEL,rabbit [17]; [49],500 mg/kg/day
same,LOAEL,rabbit [17]; [49],> 2000 mg/kg/day
same,NEL,rabbit [17]; [49],< 500 mg/kg/day
same,NOAEL,rabbit [17]; [49],≥ 2000 mg/kg/day
same,LEL,rat [18]; [50],110 mg/kg/day
same,LOAEL,rat [18]; [50],> 110 mg/kg/day
same,NEL,rat [18]; [50],30 mg/kg/day
same,NOAEL,rat [18]; [50],≥ 110 mg/kg/day
same,LEL,"rat [18]; group: parental, systemic / in life observation / body weight / body weight gain",30 mg/kg/day
same,LOAEL,rat [18]; [51],> 110 mg/kg/day
same,NEL,rat [18]; [51],10 mg/kg/day
same,NOAEL,rat [18]; [51],≥ 110 mg/kg/day
same,LOAEL,rat [19]; [52],> 110 mg/kg/day
same,NEL,rat [19]; [52],10 mg/kg/day
same,NOAEL,rat [19]; [52],≥ 110 mg/kg/day
same,LEL,rat [19]; [48],30 mg/kg/day
same,LEL,rat [19]; [53],110 mg/kg/day
same,LOAEL,rat [19]; [53],> 110 mg/kg/day
same,NEL,rat [19]; [53],30 mg/kg/day
same,NOAEL,rat [19]; [53],≥ 110 mg/kg/day
CCC[CH2][Sn]([CH2]CCC)([CH2]CCC)[O][Sn]([CH2]CCC)([CH2]CCC)[CH2]CCC [Bis(tributyltin)oxide],NEL,rat [20]; developmental / developmental malformation / mouth / jaw / cleft palate + developmental / offspring survival late / [other] / [other] + …,2.5 mg/kg/day
same,LOAEL,rat [20]; [54],> 16 mg/kg/day
same,NOAEL,rat [20]; [54],≥ 16 mg/kg/day
same,LEL,rat [20]; systemic / in life observation / body weight / offspring (pup) weight,5 mg/kg/day
